Results published in article PMC6152005, “Fluorination of Naturally Occurring N^6-Benzyladenosine Remarkably Increased Its Antiviral Activity and Selectivity” (Molecules : A Journal of Synthetic Chemistry and Natural …, 2017).

Assays:
EV71 strain BrCr = experiment: Cytopathic effect (CPE) reduction antiviral assay against EV71 in RD cells (MTS/PMS readout); type: cell-based, human enterovirus 71; conditions: for EC50: Enterovirus A, EV71 BrCr in RD cells, inhibition of virus-induced cell death, MTS/PMS, at least three independent dose-response curves; for SI (Selectivity Index): SI = CC50/EC50; for SI (Selectivity Index) / increase of SI relative to BAPR: EV71 BrCr, RD cells
Protocol: (§1) (Table 2). As previously mentioned, modifications of the N^6-substituent (linker) of the BAPR scaffold led to a remarkable increase of selectivity. Here, we produced a series of BAPR analogues to evaluate the effect of the fluorination of BAPR on the replication of EV71. A cytopathic effect (CPE) reduction assay was performed with the newly synthetized analogues (compounds 5–11) in rhabdomyosarcoma (RD) cells. BAPR, N^6-isopenthenyladenosine, and N^6-furfuryladenosine were included in the screening, and the toxicity of all of the aforementioned compounds was evaluated in parallel on treated-uninfected cells.
An EV71 BrCr laboratory-adapted strain was used at a low multiplicity of infection (MOI) in a standardized antiviral assay. Briefly, freshly harvested rhadbdosarcoma (RD) cells were seeded in a 96-well plate (2 × 10^4 cells/well) and incubated at 37 °C in 5% CO2. The next day, a serial dilution of the compounds was prepared in assay medium and added to the RD cells. Then, the cells were supplemented with the viral suspension. […] Subsequently, the antiviral effect was quantified using a colorimetric readout with 3-(4,5-dimethylthiazol-2-yl)-5-(3-carboxymethoxyphenyl)-2-(4-sulfophenyl)-2H-tetrazolium/phenazine methosulfate (MTS/PMS method), and the concentration of compound at which a 50% inhibition of virus-induced cell death would be observed (EC50) was calculated from the antiviral dose-response curves. A similar assay setup was used to determine the adverse effect of the compound on uninfected, treated cells for the calculation of the CC50 (concentration of compound that reduces overall cell health with 50% as determined by the MTS/PMS method). […]

[1] = Toxicity on treated, uninfected RD cells (MTS/PMS readout); type: cell-based; conditions: human, uninfected rhabdomyosarcoma (RD) cells, uninfected, treated RD cells; MTS/PMS; at least three independent dose-response curves
Protocol: as §1
(§2) An EV71 BrCr laboratory-adapted strain was used at a low multiplicity of infection (MOI) in a standardized antiviral assay. Briefly, freshly harvested rhadbdosarcoma (RD) cells were seeded in a 96-well plate (2 × 10^4 cells/well) and incubated at 37 °C in 5% CO2. The next day, a serial dilution of the compounds was prepared in assay medium and added to the RD cells. Then, the cells were supplemented with the viral suspension. […] Subsequently, the antiviral effect was quantified using a colorimetric readout with 3-(4,5-dimethylthiazol-2-yl)-5-(3-carboxymethoxyphenyl)-2-(4-sulfophenyl)-2H-tetrazolium/phenazine methosulfate (MTS/PMS method), and the concentration of compound at which a 50% inhibition of virus-induced cell death would be observed (EC50) was calculated from the antiviral dose-response curves. A similar assay setup was used to determine the adverse effect of the compound on uninfected, treated cells for the calculation of the CC50 (concentration of compound that reduces overall cell health with 50% as determined by the MTS/PMS method). The selectivity index (SI) was calculated as a ratio of […].

[2] = system: rhabdomyosarcoma (RD) cells; experiment: as above; type: cell-based; conditions: for cytotoxicity (in words): uninfected RD cells, highest concentration tested
Protocol: as §1, §2

Row | SMILES | EC50 (EV71 strain BrCr) | SI (Selectivity Index) (EV71 strain BrCr) | CC50 [1] | increase of SI relative to BAPR (EV71 strain BrCr; relative to BAPR) | CC50 ([2]; uninfected, treated RD cells, MTS/PMS, at least three independent dose-response curves) | cytotoxicity (in words) [2] | improvement (gain) in potency as compared to BAPR (EV71 strain BrCr; EV71 replication in RD cells, relative to BAPR)
1 | OC[C@H]1O[C@@H](n2cnc3c(NCc4ccccc4)ncnc32)[C@H](O)[C@@H]1O [Compound 1, N^6-benzyladenosine] | 0.28 ± 0.05 µM | 15 | 4.3 ± 1.6 µM | – | – | – | –
2 | CC(C)=CCNc1ncnc2c1ncn2[C@@H]1O[C@H](CO)[C@@H](O)[C@H]1O [Compound 2, N^6-isopenthenyladenosine, reference compound] | 1 ± 0.2 µM | 6.0 | 6 ± 0.6 µM | – | – | – | –
3 | OC[C@H]1O[C@@H](n2cnc3c(NCc4ccco4)ncnc32)[C@H](O)[C@@H]1O [Compound 3, N^6-furfuryladenosine, reference compound] | 1.4 ± 0.3 µM | 5.6 | 7.8 ± 3.4 µM | – | – | – | –
4 | OC[C@H]1O[C@@H](n2cnc3c(NCc4ccccc4F)ncnc32)[C@H](O)[C@@H]1O [Compound 5, N^6-(2-fluorobenzyl) adenosine] | 0.3 ± 0.05 µM | 44 | 13.3 ± 3.7 µM | – | – | – | –
5 | OC[C@H]1O[C@@H](n2cnc3c(NCc4cccc(F)c4)ncnc32)[C@H](O)[C@@H]1O [Compound 6, N^6-(3-fluorobenzyl) adenosine] | 0.24 ± 0.09 µM | 26 | 6.2 ± 1.8 µM | – | – | – | –
6 | OC[C@H]1O[C@@H](n2cnc3c(NCc4ccc(F)cc4)ncnc32)[C@H](O)[C@@H]1O [Compound 7, N^6-(4-fluorobenzyl) adenosine] | 0.14 ± 0.05 µM | 19 | 2.7 ± 0.9 µM | 1.25 times | – | – | –
7 | OC[C@H]1O[C@@H](n2cnc3c(NCc4c(F)cccc4F)ncnc32)[C@H](O)[C@@H]1O [Compound 8, N^6-(2,6-difluorobenzyl) adenosine] | 0.21 ± 0.01 µM | >1210 | > 250 µM | – | > 254 µM | – | –
8 | OC[C@H]1O[C@@H](n2cnc3c(NCc4ccccc4C(F)(F)F)ncnc32)[C@H](O)[C@@H]1O [Compound 9, N^6-(2-trifluoromethylbenzyl) adenosine] | 1 ± 0.1 µM | >235 | > 235 µM | – | – | did not show any cytotoxicity | –
9 | OC[C@H]1O[C@@H](n2cnc3c(NCc4cccc(C(F)(F)F)c4)ncnc32)[C@H](O)[C@@H]1O [Compound 10, N^6-(3-trifluoromethylbenzyl) adenosine] | 0.068 ± 0.001 µM | >3456 | > 235 µM | 230 times | – | did not show any cytotoxicity | four-fold
10 | OC[C@H]1O[C@@H](n2cnc3c(NCc4ccc(C(F)(F)F)cc4)ncnc32)[C@H](O)[C@@H]1O [Compound 11, N^6-(4-trifluoromethylbenzyl) adenosine] | 1 ± 0.1 µM | >235 | > 235 µM | – | – | did not show any cytotoxicity | –
